Measured values: patent US10149876B2, “Tripterygium wilfordii extracts to overcome chemotherapy resistance” (WESTERN UNIVERSITY OF HEALTH SCIENCES, priority 2012, dated 2018)
“And” between values parts separate entries of the source, which are not always exact repeats. Equal entries are not always repeated. Where two headings read alike, the source gives them in different places.

Experiments:
K562/Dox cells = experiment: SRB cell viability assay, daunorubicin-resistant K562/Dox cells; assay type: cell-based, human; settings: Homo sapiens
K562 cells = experiment: SRB cell viability assay, daunorubicin-sensitive K562 cells; assay type: cell-based, human; settings: Homo sapiens, K562, read-out: IC50 of drug when cells treated with drug only
Experimental: Cell culture of the above cell lines was performed as described in Example 2, except that 5,000, rather than 3,000 cells were plated per well for the K562, K562/Dox, BT474, SkBr3 lines.
Table 17 also contains the serially-diluted concentrations of drugs that each cell line was tested against.
Table 36 reports the cell viability data relating to pre-treatment with LTG-E prior to daunorubicin treatment. Table 37 reports control data obtained from cells that were not pre-treated with LGT-E prior to daunorubicin treatment. FIG. 15 summarizes the data of Tables 36 and 37 in a graphical format.

## COc1cccc2c1C(=O)c1c(O)c3c(c(O)c1C2=O)C[C@@](O)(C(C)=O)C[C@@H]3O[C@H]1C[C@H](N)[C@H](O)[C@H](C)O1 [daunorubicin]
K562/Dox cells; K562, read-out: IC50 of drug when cells pre-treated with Chemosensitizing Agent before drug treatment
  IC50: 6.53 µM and 3.45 µg/mL
K562/Dox cells; K562, read-out: IC50 of drug when cells treated with drug only
  IC50: 32.6 µM and 17.2 µg/mL
K562 cells
  IC50: 1.05 µM and 0.55 µg/mL
